How the values were obtained:
[1] = target: β-Gal (Escherichia coli, UniProt P00722); experiment: Conversion of Gal-Bhcmoc-propargyl to Bhcmoc-propargyl in the presence of β-Gal, followed by HPLC; assay type: biochemical; settings: 15 μM compound, β-Gal 0.25 ng/μL, 0.1 M phosphate buffer pH 7.3, 37° C., after 1 hour
Experimental: To 0.1 M phosphate buffer (pH 7.3) containing Gal-Bhcmoc-propargyl (final concentration of 15 μM), mercaptoethanol (0.11 M), and magnesium chloride (1 mM), β-Gal was added to a final concentration of 0.25 ng/μL. While the reaction solution was kept at 37° C., the reaction progress was followed by HPLC (see Table 2 for analytical conditions).

[2] = Photocleaving by 405 nm photoirradiation, monitored by C18 reverse phase HPLC; assay type: physicochemical; settings: 10^−5 M KMOPS solution (0.1% DMSO, pH 7.3), irradiation 0 to 30 s (Bhcmoc-propargyl) or 0 to 300 s (Gal-Bhcmoc-propargyl)
Excerpt: The 10^−5 M KMOPS solution (0.1% DMSO, pH 7.3) of Gal-Bhcmoc-propargyl or Bhcmoc-propargyl was irradiated with light with 405 nm. The reaction progress was monitored over photoirradiation time by C18 reverse phase HPLC.

[3] = UV spectrum (absorption wavelengths); assay type: physicochemical; settings: 10^−5 M KMOPS solution (0.1% DMSO, pH 7.3)
Experimental: UV spectra were measured for the 10^−5 M KMOPS solution (0.1% DMSO, pH 7.3) of Gal-Bhcmoc-propargyl and the 10^−5 M KMOPS solution (0.1% DMSO, pH 7.3) of Bhcmoc-propargyl.

Chain of β-Gal (P00722 2-1024): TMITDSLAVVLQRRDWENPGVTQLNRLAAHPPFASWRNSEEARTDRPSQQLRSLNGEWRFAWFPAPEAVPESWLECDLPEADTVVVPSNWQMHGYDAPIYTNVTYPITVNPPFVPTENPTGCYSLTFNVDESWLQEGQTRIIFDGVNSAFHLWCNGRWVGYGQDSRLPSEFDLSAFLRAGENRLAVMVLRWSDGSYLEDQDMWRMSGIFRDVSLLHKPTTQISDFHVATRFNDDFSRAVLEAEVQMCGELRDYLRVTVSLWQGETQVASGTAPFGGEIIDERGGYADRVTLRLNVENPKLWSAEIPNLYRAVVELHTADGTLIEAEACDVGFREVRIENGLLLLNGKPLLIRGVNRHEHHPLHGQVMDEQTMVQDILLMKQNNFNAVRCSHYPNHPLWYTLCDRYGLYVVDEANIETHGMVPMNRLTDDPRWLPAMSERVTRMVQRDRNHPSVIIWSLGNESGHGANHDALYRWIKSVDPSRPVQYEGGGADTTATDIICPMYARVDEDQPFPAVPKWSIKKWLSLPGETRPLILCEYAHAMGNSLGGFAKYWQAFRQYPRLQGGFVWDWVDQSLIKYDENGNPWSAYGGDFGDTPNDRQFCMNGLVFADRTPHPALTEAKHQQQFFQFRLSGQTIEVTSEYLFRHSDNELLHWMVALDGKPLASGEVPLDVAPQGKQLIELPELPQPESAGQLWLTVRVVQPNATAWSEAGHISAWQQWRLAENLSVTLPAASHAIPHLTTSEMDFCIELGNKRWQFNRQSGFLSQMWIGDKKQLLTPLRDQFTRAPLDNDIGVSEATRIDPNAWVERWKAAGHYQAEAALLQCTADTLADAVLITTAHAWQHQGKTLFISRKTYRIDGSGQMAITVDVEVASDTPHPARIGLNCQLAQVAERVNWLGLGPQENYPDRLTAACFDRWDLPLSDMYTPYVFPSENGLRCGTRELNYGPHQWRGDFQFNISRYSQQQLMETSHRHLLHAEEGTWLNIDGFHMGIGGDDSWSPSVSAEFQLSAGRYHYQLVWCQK

| Compound | conversion to Bhcmoc-propargyl (Bhc group) by β-Gal [1] | photocleaving (decrease of compound) on 405-nm photoirradiation [2] | εmax [3] | λmax [3] |
| --- | --- | --- | --- | --- |
| C#CCNC(=O)OCc1cc(=O)oc2cc(O[C@@H]3O[C@H](CO)[C@H](O)[C@H](O)[C@H]3O)c(Br)cc12 [Gal-Bhcmoc-propargyl] | completely converted | no decrease was confirmed | – | – |
| C#CCNC(=O)OCc1cc(=O)oc2cc(O)c(Br)cc12 [Bhcmoc-propargyl, (6-bromo-7-hydroxycoumarin-4-yl)methoxycarbonylpropargylamide] | – | decreases in Bhcmoc-propargyl and increases in the photocleaved product could be confirmed | 17400 M⁻¹ cm⁻¹ | 369 nm |

From patent publication US20140256015A1, “CAGED COMPOUND WHICH CAN BE PHOTOACTIVATED SELECTIVELY FOR CELL TYPES” (Toho University, priority 2013, published 2014)
